Data from article PMC7200681, “The calcitonin-like system is an ancient regulatory system of biomineralization” (Scientific Reports, 2020).

Legend:
mussel mantle edge = experiment: Ex-vivo incubation of mantle edge fragments, calcium quantification by MP-AES; design: species or system Mytilus galloprovincialis; conditions: Verapamil 200 µM, 4 hours; data not shown
Experimental: Figure 7 Effect of the mussel calcitonin-like peptide on (A) calcium (ppm) concentration in the mantle edge and (B) calcium uptake by mantle cells of the Mediterranean mussel. (A) The quantity of calcium (ppm) present in the mantle edge after mussel CALCIIa peptide incubation was measured using a Microwave Plasma-Atomic Emission Spectrometer (MP-AES, Agilent) at 393.366 nm. A standard curve for calcium was performed before analysing the samples. In vitro mantle assays with CALCIIa peptide and with ouabain and control (culture medium and mantle) were repeated on at least 3 independent occasions. For each assay at least ten replicates were performed and the mantle edge distal to the umbo was used (one mantle fragment per replica). Prism GraphPad v5 software was used to assess the significance of differences between the groups using a One-way Anova and Tukey’s multiple comparison test. […] C - control (no peptide or ouabain); P - peptide (10 μM); O - ouabain (2 mM), OP - ouabain (2 mM) and peptide (10 μM); PreOP - pre -stimulation for 1 hour with the peptide followed by 4 hours incubation with OP. (B) Digital photographs of the mussel mantle cells in the presence (CALCIIa, 10 μM) or absence (control) of the mussel CALCIIa peptide. Calcium ions were stained with 50 mM of Calcein (green) and cell nuclei (blue) with DAPI (Acros Organics). An increase in cellular fluorescence represents an increase in calcium uptake. Fluorescence of the CALCIIa peptide stimulated cells was 1.9 times higher than the control. The average mantle cell size was 3–4 μm and fluorescent images were taken using a Leica DM IL microscope coupled to a Visicam HDMI 6 digital camera and photographs were analysed using ImageJ software (v. 1.52a) to calculate the fluorescence intensity and for image overlay. The scale bar is indicated.
The posterior mantle edge region of the Mediterranean mussel was collected and washed in culture medium. The composition of the culture medium was as described in[91] […]

mussel CALCRIa = experiment: Calcium mobilization assay (apoaequorin bioluminescence), dose-response, HEK 293 cells expressing mussel CALCRIa; type: cell-based, Mytilus galloprovincialis; conditions: for EC50: HEK 293 cells stably expressing receptor, co-transfected with apoaequorin, peptide 1 μM to 0.01 nM, three independent assays in duplicate, read-out: EC50, activation of mussel CALCRIa (intracellular calcium mobilization); for Activation of mussel CALCRIa in dose-response analysis (in words): calcium mobilization, HEK 293/apoaequorin, 1 μM to 0.01 nM
Text: (§1) The complete sequence of the Mediterranean mussel CALCRIa was amplified using specific primers (Table 1) from cDNA of a tissue mixture (mantle, adductor muscle, gills, gonads) using a proofreading DNA polymerase (iProof BIORAD, Portugal) and cloned into the pGEMT-easy vector (PROMEGA, Spain). The Mediterranean mussel CALCRIIa transcript that was found in the mantle transcriptome was incomplete and lacked the N-terminus (by comparisons with the hard-shelled mussel homologue) and so the remaining sequence (from 1–393 bp) was deduced from the hard-shelled mussel homologue receptor and the receptor was synthesised and supplied by GENESCRIPT (USA). The complete transcripts for mussel CALCRIc, CALCRIIb and CALCRIIc were only found in the hard-shelled mussel mantle transcriptome and homologues were only found in the Mediterranean mussel genome as they were absent from the species mantle transcriptome and so they were also synthesised and supplied by GENESCRIPT (USA) using the hard-shelled mussel receptor sequences as template. The mussel CALCRIb transcript was incomplete and lacked both N and C-terminal regions and it was not possible to obtain the complete transcript either by searching both mussels mantle transcriptomes or the Mediterranean mussel genome and so it was not produced. All synthetized receptors were provided in the pUC57 cloning vector by the company and receptor codon usage was optimized to favour a high level of expression in mammalian cells.
(§2) Mammalian cell cultures and transfections followed the methodology described by[89],[90]. Mammalian HEK293 cells (ECACC, UK) were used and they were maintained in complete Dulbecco’s modified Eagle’s medium (DMEM, 4.5 g/l glucose, 110 mg/l sodium pyruvate and L-glutamine, SIGMA-ALDRICH, Spain) supplemented with 10% sterile foetal bovine serum (FBS), 0.1% penicillin: streptomycin antibiotic mix (10,000 U:10 mg/ml, Sigma) and 250 μg /ml sterile filtered 1:100 amphotericin B solution (SIGMA-ALDRICH) in a humid 5% CO2 incubator (HERAEUS, Portugal) at 37 °C. On the day prior to transfection, 2–3 × 10^5 HEK293 cells were seeded on 6 well plates (SARSTEDT, Portugal) and transfected with Fugene HD transfection reagent (2 DNA: 4 Fugene ratio, PROMEGA) following the manufacturer’s protocol. Seventy-two hours after transfection, 800 μg/ml of the antibiotic Geneticin (SIGMA-ALDRICH) was added to the medium to select and isolate stable receptor cell lines. Cell recovery was monitored daily and the medium was changed every two days until no cell death was observed. […]
(§3) HEK293 cells stably expressing five mussel receptors (CALCRIa, CALCRIc, CALCRIIa, CALCRIIb and CALCRIIc) were stimulated with the two mussel peptides and the vertebrate (human and salmon) calcitonins. Receptor activation was assessed in vitro by measuring two intracellular signalling pathways: a) production of cAMP and b) mobilization of calcium (Ca^2+). The cellular response was initially assessed using 10 μM of each peptide. […]
(§4) Stable cell lines expressing the mussel receptors were transiently co-transfected with the mitochondrial targeted apo-aequorin protein cloned in pcDNA3.1. Two days after transfection cells were washed, counted and resuspended in 1 ml of DMEM /F12 Ham (without phenol red)/0.1% BSA supplemented with 2 µM coelenterazine (SIGMA-ALDRICH). […] The injector system of the Biotek Synergy 4 microplate reader (USA) was used to inject 50 µl of the cell suspensions into wells containing 50 μl of the diluted peptide in DMEM / F12 Ham / 0.1% BSA. […]

[1] = system: mussel CALCR-like (CALCRIa, CALCRIc, CALCRIIa, CALCRIIb and CALCRIIc); experiment: cAMP assay in HEK 293 cells stably expressing the mussel receptors; type: cell-based; conditions: 10 µM peptide, 30 min at 37 °C, 1 mM IBMX; % of Forskolin (10uM) response; single experiment in triplicate (Supplementary Figure 7A)
Experimental: Mammalian cell cultures and transfections followed the methodology described by[89],[90]. Mammalian HEK293 cells (ECACC, UK) were used and they were maintained in complete Dulbecco’s modified Eagle’s medium (DMEM, 4.5 g/l glucose, 110 mg/l sodium pyruvate and L-glutamine, SIGMA-ALDRICH, Spain) supplemented with 10% sterile foetal bovine serum (FBS), 0.1% penicillin: streptomycin antibiotic mix (10,000 U:10 mg/ml, Sigma) and 250 μg /ml sterile filtered 1:100 amphotericin B solution (SIGMA-ALDRICH) in a humid 5% CO2 incubator (HERAEUS, Portugal) at 37 °C. […] Cell recovery was monitored daily and the medium was changed every two days until no cell death was observed. […]
as §3
The amount of cAMP produced was determined using a competitive immunoassay with a cryptate labelled anti-cAMP antibody (CISBIO, France) and followed the methodology describe by[89],[90]. […]

mussel CALCRIIa = experiment: Calcium mobilization assay (apoaequorin bioluminescence), dose-response, HEK 293 cells expressing mussel CALCRIIa; type: cell-based, Mytilus galloprovincialis; conditions: for EC50: HEK 293 cells stably expressing receptor, co-transfected with apoaequorin, peptide 1 μM to 0.01 nM, three independent assays in duplicate, read-out: EC50, activation of mussel CALCRIIa (intracellular calcium mobilization); for Activation of mussel CALCRIIa in dose-response analysis (in words): calcium mobilization, HEK 293/apoaequorin, 1 μM to 0.01 nM
Text: as §1, §2, §3, §4

mussel CALCRIIc = experiment: Calcium mobilization assay (apoaequorin bioluminescence), dose-response, HEK 293 cells expressing mussel CALCRIIc; type: cell-based, Mytilus coruscus; conditions: HEK 293/apoaequorin, 1 μM to 0.01 nM
Text: as §1, with “The mussel CALCRIb transcript was incomplete and lacked both N and C-terminal regions and it was not possible to obtain the complete transcript either by searching both mussels mantle transcriptomes or the Mediterranean mussel genome and so it was not produced. All synthetized receptors were provided in the pUC57 cloning vector by the company and receptor codon usage was optimized to favour a high level of expression in mammalian cells.” left out
Mammalian cell cultures and transfections followed the methodology described by[89],[90]. […] Cell recovery was monitored daily and the medium was changed every two days until no cell death was observed. […]
as §3
Stable cell lines expressing the mussel receptors were transiently co-transfected with the mitochondrial targeted apo-aequorin protein cloned in pcDNA3.1. Two days after transfection cells were washed, counted and resuspended in 1 ml of DMEM /F12 Ham (without phenol red)/0.1% BSA supplemented with 2 µM coelenterazine (SIGMA-ALDRICH). […]

`COc1ccc(CCN(C)CCCC(C#N)(c2ccc(OC)c(OC)c2)C(C)C)cc1OC` (stereo not shown) [Verapamil] was tested, and the “Calcium concentration of mantle fragments relative to the control (in words)” value (mussel mantle edge) was “did not change”.
For `CC[C@H](C)[C@H](NC(=O)[C@H](C)NC(=O)[C@@H](NC(=O)[C@H](CCC(N)=O)NC(=O)[C@@H]1CCCN1C(=O)[C@H](Cc1ccccc1)NC(=O)[C@@H](NC(=O)[C@H](Cc1c[nH]cn1)NC(=O)[C@H](Cc1ccccc1)NC(=O)[C@H](CCCCN)NC(=O)[C@H](CC(N)=O)NC(=O)[C@H](Cc1ccccc1)NC(=O)[C@H](CC(=O)O)NC(=O)[C@H](CCC(N)=O)NC(=O)[C@@H](NC(=O)[C@H](Cc1ccc(O)cc1)NC(=O)[C@@H](NC(=O)CNC(=O)[C@H](CC(C)C)NC(=O)[C@H](CCSC)NC(=O)[C@@H]1CSSC[C@H](N)C(=O)NCC(=O)N[C@@H](CC(N)=O)C(=O)N[C@@H](CC(C)C)C(=O)N[C@@H](CO)C(=O)N[C@@H]([C@@H](C)O)C(=O)N1)[C@@H](C)O)[C@@H](C)O)[C@@H](C)O)[C@@H](C)O)C(=O)NCC(=O)N[C@H](C(=O)NCC(=O)N[C@@H](C)C(=O)N1CCC[C@H]1C(N)=O)C(C)C` [human calcitonin, calcitonin], the EC50 (mussel CALCRIa) was 9.5 nM, the “Activation of mussel CALCRIa in dose-response analysis (in words)” value (mussel CALCRIa) was “activated” and the “Stimulation of all mussel receptors via the cAMP pathway (in words)” value [1] was “stimulated”. The EC50 (mussel CALCRIIa) was 500 nM, the “Activation of mussel CALCRIIa in dose-response analysis (in words)” value (mussel CALCRIIa) was “activated” and the “Activation of mussel CALCRIIc in dose-response analysis (in words)” value (mussel CALCRIIc) was “but not CALCRIIc”.
For `CC(C)C[C@H](NC(=O)[C@H](CCCCN)NC(=O)CNC(=O)[C@H](CC(C)C)NC(=O)[C@@H](NC(=O)[C@@H]1CSSC[C@H](N)C(=O)N[C@@H](CO)C(=O)N[C@@H](CC(N)=O)C(=O)N[C@@H](CC(C)C)C(=O)N[C@@H](CO)C(=O)N[C@@H]([C@@H](C)O)C(=O)N1)C(C)C)C(=O)N[C@@H](CO)C(=O)N[C@@H](CCC(N)=O)C(=O)N[C@@H](CCC(=O)O)C(=O)N[C@@H](CC(C)C)C(=O)N[C@@H](Cc1c[nH]cn1)C(=O)N[C@@H](CCCCN)C(=O)N[C@@H](CC(C)C)C(=O)N[C@@H](CCC(N)=O)C(=O)N[C@H](C(=O)N[C@@H](Cc1ccc(O)cc1)C(=O)N1CCC[C@H]1C(=O)N[C@@H](CCCNC(=N)N)C(=O)N[C@H](C(=O)N[C@@H](CC(N)=O)C(=O)N[C@H](C(=O)NCC(=O)N[C@@H](CO)C(=O)NCC(=O)N[C@H](C(=O)N1CCC[C@H]1C(N)=O)[C@@H](C)O)[C@@H](C)O)[C@@H](C)O)[C@@H](C)O` [salmon calcitonin, calcitonin], the EC50 (mussel CALCRIa) was 5 nM, the “Activation of mussel CALCRIa in dose-response analysis (in words)” value (mussel CALCRIa) was “activated” and the “Stimulation of all mussel receptors via the cAMP pathway (in words)” value [1] was “stimulated”. The EC50 (mussel CALCRIIa) was 14 nM, the “Activation of mussel CALCRIIa in dose-response analysis (in words)” value (mussel CALCRIIa) was “activated” and the “Activation of mussel CALCRIIc in dose-response analysis (in words)” value (mussel CALCRIIc) was “but not CALCRIIc”.
